In paper PMC3757248, “Antiestrogen-binding site ligands induce autophagy in myeloma cells that proceeds through alteration of cholesterol metabolism” (Oncotarget, 2013):

What was measured:
AEBS [1] = biological target: T1, AEBS (Homo sapiens, UniProt Q15125+Q9UBM7); test: Binding to the AEBS in RPMI 8226
LP-1 cells [2] = test: Sterols accumulated in cells, HPLC and GC/MS; format: cell-based, human; conditions: LP1, 48 h incubation
Protocol: (§1) The organic layer was reduced to dryness under a flux of argon and the residue was resuspended in ethanol. Sterols were analyzed by liquid chromatography and gas-liquid chromatography as described before. Neutral lipids and sphingomyelin analyses were done according to previously published procedures.

RPMI 8226 cells [3] = test: Sterols accumulated in cells, HPLC and GC/MS; format: cell-based, human; conditions: RPMI 8226, 48 h incubation
Protocol: as §1

RPMI 8226 cells [4] = test: Electron microscopy for MLBs, AVs and UVs; format: cell-based, human; conditions: 48 h, 10 μM drug (PBPE 40 μM)
LP-1 cells [5] = test: Electron microscopy for MLBs, AVs and UVs; format: cell-based, human; conditions: 48 h, 10 μM drug (PBPE 40 μM)
LP-1 cells [6] = test: Presence of 5,6-EC in cells by GC/MS; format: cell-based, human; conditions: 48 h, 10 μM drug (PBPE 40 μM)
Protocol: as §1

RPMI 8226 cells [7] = test: Presence of 5,6-EC in cells by GC/MS; format: cell-based, human; conditions: 48 h, 10 μM drug (PBPE 40 μM)
Protocol: as §1

HMCLs = test: Free sterol accumulation in HMCLs; format: cell-based, human
Protocol: as §1

RPMI 8226 and LP-1 cells [8] = test: Degradation of long-lived proteins; format: cell-based, human; conditions: both cell lines, 10 μM OHT, 40 μM PBPE
Protocol: The degradation of long-lived proteins was measured as described previously. Briefly, HMCLs were incubated for 24 h at 37°C with 0.2 μCi/ml of L-[[14]C]valine in complete medium. Cells were then washed resuspended in medium with no nutrients but supplemented with 10 mM valine. After the first h of incubation, the chase medium was replaced by complete medium and the incubation continued for 5 h. […] Radiolabeled proteins present in the chase medium as well as in cells were precipitated with 10% trichloroacetic acid (v/v) at 4°C. Radioactivity was measured by scintillation counting. The rate of protein degradation was calculated from the ratio of radioactivity in the medium to that of precipitated cell fraction.

RPMI 8226 and LP-1 cells [9] = test: Cell viability, MTT assay; format: cell-based, human; conditions: 1 μM LY 294002, 10 nM everolimus, 10 μM RU 39411, 40 μM PBPE
Protocol: RPMI 8226 were obtained from R Bataille (CLCC, Nantes, France) and LP-1 cells from D Bouscary (Institut Cochin, Paris, France). At their arrival, the identity of cells was checked by karyotyping and surface markers expression; cells were then amplified and frozen. HMCLs were maintained in RPMI 1640 medium (Lonza, Basel, Switzerland) supplemented with 2 mM L-glutamine (Lonza) and 10% FCS (fetal calf serum) (PAA Laboratories, Velizy-Villacoublay, France). In experiments with AEs, cells were cultured in phenol red-free medium plus FCS. AEs were dissolved in ethanol (EtOH) to obtain 10 mM stock solution and then diluted into medium immediately before use. For controls, vehicle was added at the same final concentration. Cell viability was determined using CellTiter 96® AQueous One Solution (MTT [([3]-([4],[5])-dimethylthiazol-[2]-yl)-[2],[5]-diphenyltetrazolium bromide] assay, Promega, Charbonnières, France) according to the supplier's instructions.

RPMI 8226 and LP-1 cells [10] = test: Intracellular free sterol, TG and SM contents; format: cell-based, human; conditions: 5 µM OHT, 20 µM PBPE or 5 µM RU 58668 for three days
Protocol: as §1

AEBS [11] = biological target: T1, AEBS; test: Binding to the AEBS in LP1; design: endogenous in cells; host or cells: LP-1 human multiple myeloma cell lines
ChEH [12] = biological target: T2, ChEH (Homo sapiens, UniProt Q15125+Q9UBM7); test: ChEH activity measured on intact cells; format: cell-based; design: endogenous in cells; host or cells: LP-1 human multiple myeloma cell lines
T2 sequence (Q15125 whole entry): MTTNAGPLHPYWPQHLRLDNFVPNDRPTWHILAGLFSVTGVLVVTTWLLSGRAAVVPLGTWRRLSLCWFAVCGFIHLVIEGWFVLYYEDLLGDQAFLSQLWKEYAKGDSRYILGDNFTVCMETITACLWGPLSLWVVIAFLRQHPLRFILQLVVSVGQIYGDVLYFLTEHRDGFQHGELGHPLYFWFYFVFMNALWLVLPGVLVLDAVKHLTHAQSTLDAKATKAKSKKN
T2 sequence (Q9UBM7 whole entry): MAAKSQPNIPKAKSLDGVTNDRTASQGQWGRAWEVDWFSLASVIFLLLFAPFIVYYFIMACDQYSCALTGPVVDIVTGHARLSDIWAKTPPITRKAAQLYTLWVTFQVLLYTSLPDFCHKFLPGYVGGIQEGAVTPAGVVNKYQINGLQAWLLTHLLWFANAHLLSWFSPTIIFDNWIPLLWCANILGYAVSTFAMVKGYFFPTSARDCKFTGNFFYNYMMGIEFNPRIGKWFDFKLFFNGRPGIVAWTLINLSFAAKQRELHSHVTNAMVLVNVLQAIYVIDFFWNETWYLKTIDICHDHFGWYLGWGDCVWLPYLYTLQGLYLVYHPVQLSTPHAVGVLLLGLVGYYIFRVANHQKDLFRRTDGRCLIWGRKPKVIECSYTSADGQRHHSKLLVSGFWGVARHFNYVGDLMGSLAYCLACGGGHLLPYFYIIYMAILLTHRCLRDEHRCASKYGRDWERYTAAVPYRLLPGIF
From the text: (§2) Cells were then pelleted and extracted with chloroform/methanol (2/1). The organic layer was reduced to dryness under a flux of argon and the residue was resuspended in EtOH. Samples were applied to thin layer chromatography (TLC) plates and developed using ethyl acetate as previously described. The radioactive metabolites were visualized by autoradiography using Kodak Biomax MS films.

ChEH [13] = biological target: T2, ChEH; test: ChEH activity measured on intact cells; format: cell-based; design: endogenous in cells; host or cells: RPMI 8226 human multiple myeloma cell lines
From the text: as §2

AEBS [14] = biological target: T1, AEBS; test: Binding to the AEBS in HMCLs; design: endogenous in cells; host or cells: RPMI 8226 and LP-1 human multiple myeloma cell lines
ChEH [15] = biological target: T2, ChEH; test: ChEH activity in HMCLs (TLC); format: cell-based; design: endogenous in cells; host or cells: RPMI 8226 and LP-1 human multiple myeloma cell lines; conditions: for ChEH activity, conversion of 5,6-EC into CT by TLC: OHT, Tam, RU 58668 10 μM, PBPE 40 μM
From the text: as §2

Karpas 620 = tested on: Karpas 620; design: method as in earlier work; conditions: cited from earlier work
LP-1 = tested on: LP-1; design: method as in earlier work; conditions: cited from earlier work
NCI-H929 = tested on: NCI-H929; design: method as in earlier work; conditions: cited from earlier work
OPM-2 = tested on: OPM-2; design: method as in earlier work; conditions: cited from earlier work
RPMI 8226 = tested on: RPMI 8226; design: method as in earlier work; conditions: cited from earlier work
U266 = tested on: U266; design: method as in earlier work; conditions: cited from earlier work
MM tumors = tested on: MM tumors; design: method as in PMID 20033476, PMID 16753295; conditions: xenografted mice bearing MM tumors; cited from earlier work
[16] = RPMI 8226, presence of 500 μM Vit E

T1 sequence (Q15125 whole entry): as the sequence (Q15125 whole entry) above
T1 sequence (Q9UBM7 whole entry): as the sequence (Q9UBM7 whole entry) above

Question: What does the source list for `Cl.c1ccc(Cc2ccc(OCCN3CCCC3)cc2)cc1` [PBPE, 1-(2-(4-benzylphenoxy)-ethyl)-pyrrolidin-HCl]?
Answer: Ki (AEBS [1]): 4.2 ± 1.8 nM; Desmosterol (LP-1 cells [2]): 1.2 percent by the weight of total sterol; Zymostenol (LP-1 cells [2]): 31.1 percent by the weight of total sterol; Desmosterol (RPMI 8226 cells [3]): 1.4 percent by the weight of total sterol; Zymostenol (RPMI 8226 cells [3]): 28.7 percent by the weight of total sterol; AV (RPMI 8226 cells [4]; RPMI 8226, absence of Vit E): + + (The sign + means that 80 % cells were positive and contained at least 5 vesicles); MLB (RPMI 8226 cells [4]; RPMI 8226, absence of Vit E): + + (The sign + means that 80 % cells were positive and contained at least 5 vesicles); UV (RPMI 8226 cells [4]; RPMI 8226, absence of Vit E): + (The sign + means that 80 % cells were positive and contained at least 5 vesicles); AV (RPMI 8226 cells [4]; [16]): + + (The sign + means that 80 % cells were positive and contained at least 5 vesicles); MLB (RPMI 8226 cells [4]; [16]): + + (The sign + means that 80 % cells were positive and contained at least 5 vesicles); UV (RPMI 8226 cells [4]; [16]): − (otherwise they were considered as negative (-)); AV (LP-1 cells [5]; LP-1, absence of Vit E): + + (The sign + means that 80 % cells were positive and contained at least 5 vesicles); MLB (LP-1 cells [5]; LP-1, absence of Vit E): + + (The sign + means that 80 % cells were positive and contained at least 5 vesicles); UV (LP-1 cells [5]; LP-1, absence of Vit E): + (The sign + means that 80 % cells were positive and contained at least 5 vesicles); AV (LP-1 cells [5]; LP-1, presence of 500 μM Vit E): + + (The sign + means that 80 % cells were positive and contained at least 5 vesicles); MLB (LP-1 cells [5]; LP-1, presence of 500 μM Vit E): + + (The sign + means that 80 % cells were positive and contained at least 5 vesicles); UV (LP-1 cells [5]; LP-1, presence of 500 μM Vit E): − (otherwise they were considered as negative (-)); 5,6-EC (LP-1 cells [6]; LP-1, absence of Vit E): +; 5,6-EC (LP-1 cells [6]; LP-1, presence of 500 μM Vit E): −; 5,6-EC (RPMI 8226 cells [7]; RPMI 8226, absence of Vit E): +; 5,6-EC (RPMI 8226 cells [7]; [16]): −; free sterol accumulated (HMCLs): accumulation zymostenol; rate of long-lived protein degradation (RPMI 8226 and LP-1 cells [8]): stimulated; cell death (viable cells, MTT assay) (RPMI 8226 and LP-1 cells [9]): cell death that was strictly caspase-independent; intracellular free sterol, triacylglycerol (TG) and sphingomyelin (SM) contents (RPMI 8226 and LP-1 cells [10]): increases; Ki (AEBS [11]): 3.2 ± 2.2 nM; IC50 (ChEH [12]): 884 ± 32 nM; IC50 (ChEH [13]): 927 ± 24 nM; affinity for the AEBS (AEBS [14]): high affinity; ChEH activity, conversion of 5,6-EC into CT by TLC (ChEH [15]): ChEH activity was inhibited

Question: What does the source list for `C[C@]12C[C@H](c3ccc(OCCCCCS(=O)(=O)CCCC(F)(F)C(F)(F)F)cc3)[C@@H]3c4ccc(O)cc4CC[C@H]3[C@@H]1CC[C@@H]2O` [RU 58668, 17β-11-[4-[5-[([4],[4],[5],[5],[5]-pentafluoropentyl)-sulfonyl]-pentyloxy]-phenyl]estra-1,3,5(10)-triene,3,17-diol]?
Answer: Ki (AEBS [1]): > 10000 nM; AV (RPMI 8226 cells [4]; RPMI 8226, absence of Vit E): + + (The sign + means that 80 % cells were positive and contained at least 5 vesicles); MLB (RPMI 8226 cells [4]; RPMI 8226, absence of Vit E): − − (otherwise they were considered as negative (-)); UV (RPMI 8226 cells [4]; RPMI 8226, absence of Vit E): − − (otherwise they were considered as negative (-)); AV (RPMI 8226 cells [4]; [16]): + + (The sign + means that 80 % cells were positive and contained at least 5 vesicles); MLB (RPMI 8226 cells [4]; [16]): − − (otherwise they were considered as negative (-)); UV (RPMI 8226 cells [4]; [16]): − − (otherwise they were considered as negative (-)); AV (LP-1 cells [5]; LP-1, absence of Vit E): + + (The sign + means that 80 % cells were positive and contained at least 5 vesicles); MLB (LP-1 cells [5]; LP-1, absence of Vit E): − − (otherwise they were considered as negative (-)); UV (LP-1 cells [5]; LP-1, absence of Vit E): − − (otherwise they were considered as negative (-)); AV (LP-1 cells [5]; LP-1, presence of 500 μM Vit E): + + (The sign + means that 80 % cells were positive and contained at least 5 vesicles); MLB (LP-1 cells [5]; LP-1, presence of 500 μM Vit E): − − (otherwise they were considered as negative (-)); UV (LP-1 cells [5]; LP-1, presence of 500 μM Vit E): − − (otherwise they were considered as negative (-)); free sterol accumulated (HMCLs): did not induce free sterol accumulation; SERM and SERDs effects on MM cell lines (Karpas 620): No response; SERM and SERDs effects on MM cell lines (LP-1): G1-arrest; SERM and SERDs effects on MM cell lines (NCI-H929): Apoptosis; SERM and SERDs effects on MM cell lines (OPM-2): G1-arrest; SERM and SERDs effects on MM cell lines (RPMI 8226): Apoptosis; SERM and SERDs effects on MM cell lines (U266): No response; tumor growth (MM tumors): block tumor growth; Ki (AEBS [11]): > 10000 nM; IC50 (ChEH [12]; LP-1 intact cells, [14C]-5,6-EC 0.6 μM, drugs 1 nM to 10 μM over 24 h, read-out: ChEH IC50): > 10000 nM; IC50 (ChEH [13]; RPMI 8226 intact cells, [14C]-5,6-EC 0.6 μM, drugs 1 nM to 10 μM over 24 h, read-out: ChEH IC50): > 10000 nM; affinity for the AEBS (AEBS [14]): no measurable affinity; ChEH activity, conversion of 5,6-EC into CT by TLC (ChEH [15]): CT accumulated; IC50 (ChEH [15]; read-out: concentration up to which ChEH was not inhibited): > 10000 nM
